Columns and labels:
[1] = Radioimmunoassay of plasma EGF correlated with plucking force; assay type: in vivo, sheep
Experimental: During the course of the above trails blood samples were taken from selected animals at approximately 1/2 hour intervals after the start of treatment. A correlation between radioimmunoassay determinations of plasma concentrations EGF and forces subsequently required to pluck wool from the skin of the sheep, pointed to the desirability of establishing a plasma concentration EGF of at least about 10 ng/ml for a period of at least about 15 hrs. in order to modify wool growth sufficiently for the fleece to be easily removed by hand.

[2] = system: Adult Merino wethers; test: Wool harvested from tattooed midside area after subcutaneous infusion (wool growth); assay type: in vivo, sheep
Experimental: (§1) Wethers were prepared for infusion experiments by the insertion of a polythene catheter below the skin so that the orifice lay near the centre of a 10×10 cm tattooed side on the right midside region of the body. The defleecing agent was dissolved in sterile saline solution and infused using a Harvard pump delivering a volume of 0.030 ml/min. Control animals were infused with saline solution alone.
Recovery to preinfusion growth levels was observed 2 weeks later. At lower dose levels wool growth inhibition was noticeably less, the maximum recorded effect being about 80% inhibition of wool growth. This occurred about 4 weeks after infusion, but normal wool growth was attained about 2 weeks later.

[3] = system: Adult Merino wethers; test: Subcutaneous infusion in sheep: staple plucking force and defleecing result; assay type: in vivo; details: for Plucking Force day 7: day 7 (in day 9 column)
From the text: One way of defining the extent of wool fibre weakening is by reference to the plucking force (Newtons/ktex, or N/ktex) required to remove the fleece. Methods for making this measurement are described by A. J. Gordon, Aust. J. of Exp. Agric. Anim. Husb. 20, 40-49, and Moore et al, Search. 12, 128-129.
Adult Merino wethers were housed under cover in individual pens or metabolic cages. The animals were offered a maintenance ration of 600 g of a pelleted mixture of 60% lucerne and 40% oats as one meal daily. Drinking water was provided ad lib.
as §1

[4] = system: new born mice; details: injected into new born mice; cited from earlier work
[5] = sheep 1, 36.3 kg, EGF dose total 27.5, 1.86 mg/kg^0.75, s.c. infusion 66 hr
[6] = sheep 3, 41.0 kg, EGF dose total 11.7, 0.74 mg/kg^0.75, s.c. infusion 28 hr
[7] = sheep 4, EGF dose total 11.7, s.c. infusion 28 hr
[8] = sheep 5, EGF dose total 10.0, s.c. infusion 28 hr
[9] = sheep 7, 49.0 kg, EGF dose total 5.8, 0.32 mg/kg^0.75, s.c. infusion 28 hr
[10] = sheep 8, 47.6 kg, EGF dose total 4.7, 0.26 mg/kg^0.75, s.c. infusion 28 hr
[11] = sheep 9, 47.4 kg, EGF dose total 4.7, 0.26 mg/kg^0.75, s.c. infusion 28 hr
[12] = sheep 10, 42.0 kg, EGF dose total 4.7, 0.28 mg/kg^0.75, s.c. infusion 26.5 hr
[13] = sheep 12, 45.4 kg, EGF dose total 2.9, 0.17 mg/kg^0.75, s.c. infusion 28 hr
[14] = sheep 13, 30.6 kg, EGF dose total 2.4, 0.19 mg/kg^0.75, s.c. infusion 25 hr
[15] = sheep 14, 29.4 kg, EGF dose total 2.0, 0.16 mg/kg^0.75, s.c. infusion 26.5 hr
[16] = sheep 16, EGF dose total 1.0, s.c. infusion 28 hr
[17] = sheep 17, 40.8 kg, EGF dose total 1.0, 0.06 mg/kg^0.75, s.c. infusion 28 hr
[18] = sheep 19, 31.8 kg, EGF dose total 5.0, 0.37 mg/kg^0.75, s.c. infusion 7 hr
[19] = sheep 20, 41.0 kg, EGF dose total 5.0, 0.31 mg/kg^0.75, s.c. infusion 7 hr
[20] = sheep 21, 41.9 kg, EGF dose total 5.0, 0.30 mg/kg^0.75, s.c. infusion 7 hr
[21] = sheep 22, 45.0 kg, EGF dose total 5.0, 0.29 mg/kg^0.75, s.c. infusion 7 hr
[22] = sheep 23, 50.6 kg, EGF dose total 5.0, 0.26 mg/kg^0.75, s.c. infusion 7 hr
[23] = sheep 24, 28.6 kg, EGF dose total 2.4, 0.20 mg/kg^0.75, s.c. infusion 48 hr
[24] = sheep 25, 28.4 kg, EGF dose total 2.4, 0.19 mg/kg^0.75, s.c. infusion 48 hr
[25] = sheep 26, 42.0 kg, EGF 1-45 dose total 4.9, 0.30 mg/kg^0.75, s.c. infusion 26.5 hr
[26] = sheep 27, EGF 1-45 dose total 1.0, s.c. infusion 28 hr

With “EGF: polypeptide of 53 amino acids prepared from the submaxillary glands of adult male mice” the “Period of plasma concentration needed for fleece to be easily removed by hand” value ([1]; at plasma EGF of at least about 10 ng/ml) was “at least 15 hrs”, the “Plasma concentration EGF needed for fleece to be easily removed by hand” value ([1]; radioimmunoassay, correlated with plucking force) was “at least 10 ng/ml” and the Wool production ([2]; 0.74 and 1.86 mg EGF/kg^0.75, 2 weeks after the start of infusion) was “declined to near zero”. For the same substance, the “Time to recovery to preinfusion growth levels” value ([2]; 0.74 and 1.86 mg EGF/kg^0.75, counted after the near-zero point (2 weeks after start)) was 2 weeks, the “Time of maximum wool growth inhibition after infusion” value ([2]; lower dose levels) was “about 4 weeks” and the “Time to normal wool growth after maximum inhibition” value ([2]; lower dose levels) was “about 2 weeks”. The “Maximum inhibition of wool growth” value ([2]; lower dose levels (below 0.74 mg EGF/kg^0.75)) was “about 80%”, the Fleece removal ([3]; s.c. infusion at rates as low as 0.16 mg EGF/kg^0.75) was “consistently allowed fleece to be easily removed” and the “Time to casting of the whole fleece” value ([3]; s.c. infusion of amounts greater than about 0.25 mg EGF/kg^0.75) was no more than 7 days. For the same substance, the Fleece result ([3]; s.c. infusions less than 0.25 mg EGF/kg^0.75) was “fleeces were retained but staples could easily be removed by hand”, the “Plucking Force day 1” value [3, 5] was 12.2 N/ktex and the “Plucking Force day 9” value [3, 5] was 0.1 N/ktex. The Result [3, 5] was “Fleece cast”, the “Plucking Force day 1” value [3, 6] was 8.9 N/ktex and the “Plucking Force day 9” value [3, 6] was 0 N/ktex. The Result [3, 6] was “Fleece cast”, the “Plucking Force day 1” value [3, 7] was 3.4 N/ktex and the Result [3, 7] was “Fleece cast”. The “Plucking Force day 7” value [3, 7] was 0.3 N/ktex, the “Plucking Force day 1” value [3, 8] was 4.1 N/ktex and the Result [3, 8] was “Fleece cast”. For the same substance, the “Plucking Force day 7” value [3, 8] was 0.2 N/ktex, the “Plucking Force day 1” value [3, 9] was 7.5 N/ktex and the “Plucking Force day 9” value [3, 9] was 0.4 N/ktex. The Result [3, 9] was “Fleece cast”, the “Plucking Force day 1” value [3, 10] was 21.3 N/ktex and the “Plucking Force day 9” value [3, 10] was 2.1 N/ktex. The Result [3, 10] was “Fleece cast”, the “Plucking Force day 1” value [3, 11] was 12.5 N/ktex and the “Plucking Force day 9” value [3, 11] was 1.4 N/ktex. The Result [3, 11] was “Fleece cast”, the “Plucking Force day 1” value [3, 12] was 7.6 N/ktex and the “Plucking Force day 9” value [3, 12] was 0.1 N/ktex. For the same substance, the Result [3, 12] was “Fleece cast”, the “Plucking Force day 1” value [3, 13] was 6.6 N/ktex and the “Plucking Force day 9” value [3, 13] was 0.6 N/ktex. The Result [3, 13] was “Weakened fibre”, the “Plucking Force day 1” value [3, 14] was 11.3 N/ktex and the “Plucking Force day 9” value [3, 14] was 2.1 N/ktex. The Result [3, 14] was “Weakened fibre”, the “Plucking Force day 1” value [3, 15] was 9.3 N/ktex and the “Plucking Force day 9” value [3, 15] was 1.5 N/ktex. For the same substance, the Result [3, 15] was “Weakened fibre”, the “Plucking Force day 1” value [3, 16] was 5.5 N/ktex and the “Plucking Force day 9” value [3, 16] was 3.6 N/ktex. For the same substance, the Result [3, 16] was “Weakened fibre”, the “Plucking Force day 1” value [3, 17] was 10.6 N/ktex and the “Plucking Force day 9” value [3, 17] was 8.7 N/ktex. The Result [3, 17] was “No effect”, the “Plucking Force day 1” value [3, 18] was 7.0 N/ktex and the “Plucking Force day 9” value [3, 18] was 0.4 N/ktex. For the same substance, the Result [3, 18] was “Fleece cast”, the “Plucking Force day 1” value [3, 19] was 17.9 N/ktex and the “Plucking Force day 9” value [3, 19] was 1.0 N/ktex. For the same substance, the Result [3, 19] was “Fleece cast”, the “Plucking Force day 1” value [3, 20] was 11.4 N/ktex and the “Plucking Force day 9” value [3, 20] was 0.8 N/ktex. For the same substance, the Result [3, 20] was “Fleece cast”, the “Plucking Force day 1” value [3, 21] was 9.0 N/ktex and the “Plucking Force day 9” value [3, 21] was 1.0 N/ktex. The Result [3, 21] was “Fleece cast”, the “Plucking Force day 1” value [3, 22] was 12.7 N/ktex and the “Plucking Force day 9” value [3, 22] was 2.8 N/ktex. For the same substance, the Result [3, 22] was “Fleece cast”, the “Plucking Force day 1” value [3, 23] was 14.8 N/ktex and the “Plucking Force day 9” value [3, 23] was 3.2 N/ktex. For the same substance, the Result [3, 23] was “Weakened fibre”, the “Plucking Force day 1” value [3, 24] was 11.7 N/ktex and the “Plucking Force day 9” value [3, 24] was 2.4 N/ktex. The Result [3, 24] was “Weakened fibre” and the “Effect on body growth rate and hair growth” value [4] was “can inhibit body growth rate and hair growth”.
For “EGF 1-45: derivative prepared by tryptic digestion of the intact EGF peptide (NSYPGCPSSYDGYCLNGGVCMHIESLDSYTCNCVIGYSGDRCQTR; not fully specified; Epidermal growth factor; UniProt P01132 977-1021, looked up, fragment)”, the “Infusion results compared with EGF” value ([3]; s.c. infusion) was “closely similar results”, the “Plucking Force day 1” value [3, 25] was 5.6 N/ktex and the “Plucking Force day 9” value [3, 25] was 0.3 N/ktex. For the same substance, the Result [3, 25] was “Fleece cast”, the “Plucking Force day 1” value [3, 26] was 4.1 N/ktex and the “Plucking Force day 9” value [3, 26] was 3.1 N/ktex. The Result [3, 26] was “Weakened fibre”.
